Publication PMC10485887, “PET Evaluation of the Novel F-18 Labeled Reversible Radioligand [^18F]GEH200449 for Detection of Monoamine Oxidase-B in the Non-Human Primate Brain” (ACS Chemical Neuroscience, 2023)
Where two headings read alike, the source gives them in different places.

Test system: MAO-B
Type: in vivo, Macaca fascicularis
Settings: baseline
Description: At start of PET data acquisition, a sterile physiological phosphate buffer solution (pH = 7.4) of [^18F]GEH200449 (injected radioactivity, 107–167 MBq) was injected as a bolus into a sural vein. Emission data were acquired in list mode for 123 min. Arterial blood was sampled as previously described[28] using an automated blood sampling system (ABSS) during the first 3 min of each PET measurement. Subsequently, arterial blood samples (0.7–2.5 mL) were manually drawn at 7, 15, 30, 60, 90, and 120 min after injection of [^18F]GEH200449. After centrifugation, 0.15–1.0 mL of plasma was pipetted and plasma radioactivity was measured in a well counter. In addition, samples were taken directly from the ABSS at 0.5, 1, 1.5, 2, 2.5, and 3 min for cross-calibration with the well counter and for the determination of the plasma-to-blood ratio.
Dynamic images were reconstructed as previously described.[30],[31] Regions of interest (ROIs) for the whole brain and selected regions (caudate nucleus, putamen, thalamus, occipital cortex, prefrontal cortex, and cerebellum) were manually delineated on T1-weighted magnetic resonance images (MRIs) acquired as previously described.[21],[27] PET images were coregistered to the MRIs, and time-activity curves were generated by pooling ROIs for each paired anatomical region and applying the pooled ROIs to the coregistered PET images. Delineation of ROIs and image coregistrations were performed using the software PMOD v. 3.6 (PMOD Technologies, Zurich, Switzerland).
Time curves for regional [^18F]GEH200449 binding at baseline were analyzed by kinetic modeling using 1-TC and 2-TC models,[32] and VT as outcome measures. Akaike information criterion[33] and F statistics were applied to select the preferred model. Regional estimates of VT for [^18F]GEH200449 were also obtained using the Logan linear graphical method[34] with t* fixed at 40 min. The analyses were performed using the kinetic modeling tool in PMOD v. 4.3. Occupancy at [^18F]GEH200449 binding sites was estimated based on regional VT values obtained by the Logan method at baseline and after drug administration according to a graphical procedure described in the literature.[22]

## O=c1ccoc2ccc(OCc3ccc([18F])nc3)cc12 [[^18F]GEH200449]
NHP #1, CAU
  2-TC parameter estimate K1: 0.70 mL min-1 cm-3
  2-TC parameter estimate VT: 14.6 mL cm-3
  2-TC parameter estimate k2: 0.09 min⁻¹
  2-TC parameter estimate k3: 0.034 min⁻¹
  2-TC parameter estimate k4: 0.037 min⁻¹
NHP #1, CER
  2-TC parameter estimate K1: 0.47 mL min-1 cm-3
  2-TC parameter estimate VT: 11.1 mL cm-3
  2-TC parameter estimate k2: 0.07 min⁻¹
  2-TC parameter estimate k3: 0.021 min⁻¹
  2-TC parameter estimate k4: 0.038 min⁻¹
NHP #1, OC
  2-TC parameter estimate K1: 0.49 mL min-1 cm-3
  2-TC parameter estimate VT: 10.8 mL cm-3
  2-TC parameter estimate k2: 0.07 min⁻¹
  2-TC parameter estimate k3: 0.016 min⁻¹
  2-TC parameter estimate k4: 0.024 min⁻¹
NHP #1, PFC
  2-TC parameter estimate K1: 0.57 mL min-1 cm-3
  2-TC parameter estimate VT: 11.0 mL cm-3
  2-TC parameter estimate k2: 0.09 min⁻¹
  2-TC parameter estimate k3: 0.028 min⁻¹
  2-TC parameter estimate k4: 0.037 min⁻¹
NHP #1, PUT
  2-TC parameter estimate K1: 0.71 mL min-1 cm-3
  2-TC parameter estimate VT: 14.1 mL cm-3
  2-TC parameter estimate k2: 0.09 min⁻¹
  2-TC parameter estimate k3: 0.025 min⁻¹
  2-TC parameter estimate k4: 0.029 min⁻¹
NHP #1, THA
  2-TC parameter estimate K1: 0.59 mL min-1 cm-3
  2-TC parameter estimate VT: 15.0 mL cm-3
  2-TC parameter estimate k2: 0.06 min⁻¹
  2-TC parameter estimate k3: 0.008 min⁻¹
  2-TC parameter estimate k4: 0.016 min⁻¹
NHP #1, WB
  2-TC parameter estimate K1: 0.51 mL min-1 cm-3
  2-TC parameter estimate VT: 10.9 mL cm-3
  2-TC parameter estimate k2: 0.09 min⁻¹
  2-TC parameter estimate k3: 0.025 min⁻¹
  2-TC parameter estimate k4: 0.031 min⁻¹
NHP #3, CAU
  2-TC parameter estimate K1: 0.65 mL min-1 cm-3
  2-TC parameter estimate VT: 19.2 mL cm-3
  2-TC parameter estimate k2: 0.04 min⁻¹
  2-TC parameter estimate k3: 0.006 min⁻¹
  2-TC parameter estimate k4: 0.029 min⁻¹
NHP #3, CER
  2-TC parameter estimate K1: 0.44 mL min-1 cm-3
  2-TC parameter estimate VT: 13.9 mL cm-3
  2-TC parameter estimate k2: 0.04 min⁻¹
  2-TC parameter estimate k3: 0.005 min⁻¹
  2-TC parameter estimate k4: 0.016 min⁻¹
NHP #3, OC
  2-TC parameter estimate K1: 0.38 mL min-1 cm-3
  2-TC parameter estimate VT: 11.2 mL cm-3
  2-TC parameter estimate k2: 0.04 min⁻¹
  2-TC parameter estimate k3: 0.003 min⁻¹
  2-TC parameter estimate k4: 0.012 min⁻¹
NHP #3, PFC
  2-TC parameter estimate K1: 0.49 mL min-1 cm-3
  2-TC parameter estimate VT: 13.5 mL cm-3
  2-TC parameter estimate k2: 0.05 min⁻¹
  2-TC parameter estimate k3: 0.006 min⁻¹
  2-TC parameter estimate k4: 0.017 min⁻¹
NHP #3, PUT
  2-TC parameter estimate K1: 0.70 mL min-1 cm-3
  2-TC parameter estimate VT: 16.7 mL cm-3
  2-TC parameter estimate k2: 0.05 min⁻¹
  2-TC parameter estimate k3: 0.007 min⁻¹
  2-TC parameter estimate k4: 0.029 min⁻¹
NHP #3, THA
  2-TC parameter estimate K1: 0.58 mL min-1 cm-3
  2-TC parameter estimate VT: 18.5 mL cm-3
  2-TC parameter estimate k2: 0.04 min⁻¹
  2-TC parameter estimate k3: 0.007 min⁻¹
  2-TC parameter estimate k4: 0.023 min⁻¹
NHP #3, WB
  2-TC parameter estimate K1: 0.48 mL min-1 cm-3
  2-TC parameter estimate VT: 12.6 mL cm-3
  2-TC parameter estimate k2: 0.05 min⁻¹
  2-TC parameter estimate k3: 0.010 min⁻¹
  2-TC parameter estimate k4: 0.029 min⁻¹
NHP #4, CAU
  2-TC parameter estimate K1: 0.50 mL min-1 cm-3
  2-TC parameter estimate VT: 19.9 mL cm-3
  2-TC parameter estimate k2: 0.05 min⁻¹
  2-TC parameter estimate k3: 1.087 min⁻¹
  2-TC parameter estimate k4: 1.229 min⁻¹
NHP #4, CER
  2-TC parameter estimate K1: 0.32 mL min-1 cm-3
